Results: paper PMC9684509, “Construction of a synthetic methodology-based library and its application in identifying a GIT/PIX protein–protein interaction inhibitor” (Nature Communications, 2022)
Where two headings read alike, the source gives them in different places. Ends that are not written are not given here.

What was measured:
[1] = target: T1, GIT1 1–370 (Mus musculus, UniProt Q68FF6); test: biochemical; set-up: Fluorescence polarization competition of FITC-beta-Pix peptide binding to GIT1 1-370; conditions: read-out: IC50 in FP assay
T1 construct: residues 1-370, E. coli BL21(DE3), N-terminal Trx-His6 tag removed by HRV-3C protease; for BLI biotin-labelled (BLI construct not restated)
T1 sequence (Q68FF6 1-370): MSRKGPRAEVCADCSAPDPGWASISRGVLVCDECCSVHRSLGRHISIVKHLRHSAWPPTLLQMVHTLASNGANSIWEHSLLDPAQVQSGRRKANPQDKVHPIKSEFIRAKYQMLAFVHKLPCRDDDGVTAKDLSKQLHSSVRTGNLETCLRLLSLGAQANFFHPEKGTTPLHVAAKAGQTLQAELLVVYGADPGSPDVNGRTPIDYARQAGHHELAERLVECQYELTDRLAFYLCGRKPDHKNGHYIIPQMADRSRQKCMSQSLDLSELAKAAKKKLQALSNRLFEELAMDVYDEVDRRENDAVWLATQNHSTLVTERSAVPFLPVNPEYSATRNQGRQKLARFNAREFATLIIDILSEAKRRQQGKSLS
Experimental: GIT1 protein purification: Purification of GIT1 1–370 was performed following a published protocol. Briefly, the coding sequence of mouse GIT1 aa. 1–370 (GenBank: NM_001004144.1) was cloned into a pET32M3C (with an N-terminal Trx-His6 tag) vector. The recombinant protein was expressed in Escherichia coli BL21 (DE3) cells at 16 °C for 18 h induced by the isopropyl-β-D-thiogalactoside (IPTG) at a final concentration of 0.2 mM. The N-terminal Trx-His6-tagged GIT1 1–370 was purified by Ni^2+-NTA agarose affinity chromatography, followed by a Superdex-200 26/60 size-exclusion chromatography (GE Healthcare, Cytiva). To remove the Trx-His6 tag, GIT1 protein was cleaved by HRV-3C protease at 4 °C overnight and then purified by another step of SEC purification. The β-Pix-positive peptide (sequence: […]) and fluorescent peptide (sequence: FITC-(Acp)-[…]) were synthesized by China peptide (Shanghai, China). FP assay was used to monitor interactions between GIT1 and the compounds. For each assay, fresh protein stocks of GIT1 were thawed. Assay buffer contained 100 mM NaCl, 50 mM Tris pH 7.5. All the experiments were prepared in duplicates. The fluorescence intensities, parallel and perpendicular to the plane of excitation, were determined in Corning black 96-well NBS assay plates at room temperature. Fluorescence polarization was determined using a Multi-Mode Detection Platform (SpectraMax Paradigm, Molecular Devices, USA) with 485 nm excitation and 535 nm emission filters, the values were expressed in millipolarization units (mP). The binding affinity of the fluorescent peptide toward GIT1 was first determined via titration. For this purpose, 100 nM fluorescent peptide was contacted with serial dilutions of GIT1 (concentration ranging from 0.01 to 10 µM) in a final volume of 80 µL. KD value was stimulated from FP values and protein concentrations using GraphPad Prism 8.0 software. Competition binding assay was performed using 100 nM fluorescent peptide and optimal protein concentration (2.0 µM) for the measurement was calculated based on determined KD. Tested compounds were prepared as serial dilutions (0.1–500 µM) in DMSO. […] Additionally, the commercial compound library ChemDiv was screened as a control. The 20 compounds with the best docking scores were selected, purchased, and further subjected to FP binding assay to test their inhibitory abilities. […] The screening was performed at both virtual and entity levels. In the virtual screening, the docking model of the GIT1/β-Pix complex was constructed, and the binding pocket was generated based on the complex structure of GIT2/β-Pix that we solved recently (PDB ID: 6JMT)[42] (Fig. 2c). The virtual library (SMBL-V) was subjected to the Sybyl-X 2.0 program to perform high-throughput docking screening with GIT1 at the specific binding pockets. […] The Autodock and Sybyl-X 2.0 programs were used in combination for the second round of screening. Twenty top-ranked molecules were selected, and 9 compounds were synthesized (one structure for each scaffold) to perform further evaluation (N = 9) (see Source Data File for detailed structures and scores). For the entity library (SMBL-E) screening, a fluorescence polarization (FP)-binding assay[43],[44] was established to evaluate the inhibitory abilities of the compounds on the GIT1/β-Pix interaction (Fig. 2d). Several representative compounds (N = 100) with different scaffolds were chosen for screening. Together with the 9 compounds selected from virtual screening, a total of 109 compounds were subjected to the FP binding assay to perform the final evaluation. Compound 15-4-26 from the virtual library and compound 14-5-18 from the entity library with the best binding affinities (Ki values) were selected as candidates (Fig. 2e and Supplementary Fig. 3).

[2] = target: T1, GIT1 1–370; test: biochemical; set-up: fluorescence polarization competition, displacement of FITC-beta-Pix peptide from GIT1; conditions: read-out: IC50 in FP assay
Experimental: GIT1 protein purification: Purification of GIT1 1–370 was performed following a published protocol. Briefly, the coding sequence of mouse GIT1 aa. 1–370 (GenBank: NM_001004144.1) was cloned into a pET32M3C (with an N-terminal Trx-His6 tag) vector. The recombinant protein was expressed in Escherichia coli BL21 (DE3) cells at 16 °C for 18 h induced by the isopropyl-β-D-thiogalactoside (IPTG) at a final concentration of 0.2 mM. The N-terminal Trx-His6-tagged GIT1 1–370 was purified by Ni^2+-NTA agarose affinity chromatography, followed by a Superdex-200 26/60 size-exclusion chromatography (GE Healthcare, Cytiva). To remove the Trx-His6 tag, GIT1 protein was cleaved by HRV-3C protease at 4 °C overnight and then purified by another step of SEC purification. The β-Pix-positive peptide (sequence: […]) and fluorescent peptide (sequence: FITC-(Acp)-[…]) were synthesized by China peptide (Shanghai, China). […] The fluorescence intensities, parallel and perpendicular to the plane of excitation, were determined in Corning black 96-well NBS assay plates at room temperature. Fluorescence polarization was determined using a Multi-Mode Detection Platform (SpectraMax Paradigm, Molecular Devices, USA) with 485 nm excitation and 535 nm emission filters, the values were expressed in millipolarization units (mP). The binding affinity of the fluorescent peptide toward GIT1 was first determined via titration. […]

[3] = target: T1, GIT1 1–370; test: fluorescence polarization competition with FITC-beta-Pix peptide; format: binding
[4] = target: T1, GIT1 1–370; test: biochemical; set-up: Biolayer interferometry, kinetic binding of 14-5-18 to GIT1
Excerpt: We next investigated whether compounds 14-5-18 and 15-4-26 specifically perturbed the GIT1/β-Pix interaction in living cells. Firstly, we performed Cellular Thermal Shift Assay (CETSA) to preliminarily explore the target engagement of the compounds with GIT1 (Supplementary Fig. 4). CETSA relies on the fact that proteins are generally vulnerable to thermal conditions, while physical binding with other molecules could improve their stability. […] Therefore, further evaluations were only performed with 14-5-18, and 15-4-26 was suspended for its poor potential for drug development. […] Similarly, under thermal conditions from 30 to 90 °C, 14-5-18 (50 µM) also considerably stabilized GIT1, especially at high temperatures (Supplementary Fig. 4c). To further confirm whether 14-5-18 directly bound to GIT1, we used biolayer interferometry (BLI) assay to measure their interaction. […] Concentrations ranging from 25 to 400 μM were shown with the real-time response for each step of the kinetic assay. b Co-IP assay to indicate the interaction of GIT1 and β-Pix and the inhibitory effects of 14-5-18. […] GFP-GIT1 (green) and Myc-β-Pix were expressed followed by treatment with a fluorescent secondary antibody (red) in the MGC803 cell line to construct the fluorescence system. […] Plot fluorescence intensities of the area marked by the white lines in the left panels are shown in the right graphs. […]

[5] = target: T2, GIT1 1–370 (mouse) (mouse, UniProt Q68FF6 1-370); test: fluorescence polarisation; direct titration: 100 nM fluorescent peptide with serial dilutions of GIT1 (0.01 to 10 µM), 80 µL; 100 mM NaCl, 50 mM Tris pH 7.5, room temperature; conditions: both partners purified
T2 construct: GIT1, mouse, aa 1-370 (GenBank NM_001004144.1), cloned into pET32M3C; also called GIT1 protein; source: E. coli BL21 (DE3), purified (Ni-NTA, SEC, tag cleaved by HRV-3C, SEC); not shown: Trx, N-terminal, cleaved; His6, N-terminal, cleaved
T2 sequence (looked up): T1 sequence (Q68FF6 1-370)

Molecule: CC(NS(=O)(=O)c1ccc2c(c1)C(=O)c1cc(S(=O)(=O)NC(C)C(=O)O)ccc1-2)C(=O)O (stereo not drawn) [2578-0155]
- IC50 [1]: > 1000 µM

Molecule: Cc1cc(-c2ccc3ccccc3n2)nc2ccc3ccccc3c12 [0443-0206]
- IC50 [1]: > 1000 µM

Molecule: C1C2CC3CC1CC(C2)C3Nc1nc2nonc2nc1NC1C2CC3CC(C2)CC1C3 (stereo not drawn) [3277-0083]
- IC50 [1]: > 100 µM

Molecule: CN1C(=O)C(c2c(-c3ccc4ccccc4c3)[nH]c3[nH]c(=O)[nH]c(=O)c23)c2ccccc21 (stereo not drawn) [D517-1064]
- IC50 [1]: > 1000 µM

Molecule: O=S(=O)(c1ccc2nc(Nc3ccc(Br)cc3F)ccc2c1)N1CCCCC1 [F052-0078]
- IC50 [1]: > 100 µM

Molecule: CC1=CC(C)(C)Nc2ccc(OC(=O)C(Cc3ccccc3)N3C(=O)C4CCCCC4C3=O)cc21 (stereo not drawn) [4934-0001]
- IC50 [1]: > 1000 µM

Molecule: Cc1cc(C)cc(S(=O)(=O)N2CCC3(CC2)NCCN=C3NCc2ccc(C(F)(F)F)cc2)c1 [L676-2486]
- IC50 [1]: > 100 µM

Molecule: O=C(NCc1ccco1)C1CN(C(=O)c2cccs2)CC12CCCCC2 (stereo not drawn) [S030-1757]
- IC50 [2]: > 1000 µM

Molecule: CCOC(=O)C1=C[C@H](c2cccc(C)c2)[C@H]2CC[C@@H](CC(=O)C3CCCCC3)O[C@H]2N1S(=O)(=O)c1ccc(C)cc1 [15-4-26]
- Ki [3]: 1.5 µM

Molecule: CCS(=O)(=O)c1ccc2c(c1)N(Cc1nc(-c3ccc4c(c3)OCO4)no1)C(=O)CO2 [L111-0329]
- IC50 [1]: > 1000 µM

Molecule: O=C1Nc2ccccc2Oc2cc(Oc3ccc4c(c3)OCO4)c(S(=O)(=O)N3CCCC3)cc21 [J030-0445]
- IC50 [1]: > 1000 µM

Molecule: CCOC(=O)[C@@H]1[C@@H]2C[C@@H](/C(=C\c3ccoc3)C2=O)[C@@]12C(=O)N(C)c1ccccc12 [14-5-18, ethyl (1S,2R,3R,4S,E)-6-(furan-3-ylmethylene)-1'-methyl-2',5-dioxospiro [bicyclo[2.2.1]heptane-2,3'-indoline]-3-carboxylate]
- kon ([4]; read-out: ka): 200 M⁻¹ s⁻¹
- koff ([4]; read-out: kdis): 0.00154 s⁻¹

Molecule: CSc1cccc(NC(=O)Nc2ccc(Nc3cc(N(C)C)nc(C)n3)cc2)c1 [D638-0006F]
- IC50 [1]: > 1000 µM

Molecule: O=C(Nc1cccc(OCc2cc(=O)n3cc(Cl)ccc3n2)c1)Nc1ccc2c(c1)OCCO2 [G756-2320]
- IC50 [1]: > 100 µM

Molecule: Cc1ccc2cc3c(nc2c1)N(S(=O)(=O)c1ccc2c(c1)OCCO2)CC3 [D470-0645]
- IC50 [1]: > 100 µM

Molecule: CC(CC(=O)Nc1ccc2c(c1)OCCO2)S(=O)(=O)c1ccc2c(c1)NC(=O)CCS2 (stereo not drawn) [L705-0544]
- IC50 [1]: > 1000 µM

Molecule: Cn1c(=O)n(C)c2cc(CNC34CC5CC(C)(CC(C)(C5)C3)C4)ccc21 [D272-0692]
- IC50 [1]: > 1000 µM

Molecule: CCOC(=O)[C@@H]1[C@@H]2C[C@@H](/C(=C\c3ccoc3)C2=O)[C@@]12C(=O)N(C)c1ccccc12 [14-5-18]
- Ki [3]: 1.8 µM

Molecule: Cn1c(=O)c2c(nc(Oc3cccc(C4Nc5ccc6ccccc6c5C5=C4C(=O)CC(C)(C)C5)c3)n2C)n(C)c1=O (stereo not drawn) [3277-0261]
- IC50 [1]: > 100 µM

B1: FITC-β-Pix fluorescent peptide (peptide)
peptide: ALEEDAQILKVIEAYCTSAKT
modifications: not fully specified (N-terminus)
notes: source: synthetic peptide (China peptide, Shanghai)
- binding result [5]: binds
